Source: ChEMBL document CHEMBL3430912, “GSK Tres Cantos Anti-Kinetoplastid Screening (TCAKS) Data”

Columns and labels:
Trypanosoma cruzi [1] = assay: GSK_TCAKS: pIC50 Trypanosoma cruzi viability assay using beta-GAL activity. This assay was run at single shot at 5uM compound concentration per well. The biological reagents consisted of NIH-3T3 host cells and trypomastigotes parasitic cells; both cell types were set to a 3.3 * 10^5 cells/mL dilution in assay DMEM by means of a CASY cell counter device using a 60um capillary. 6 uL of the mixture were dispensed per well (about 1 * 10^3 host-cells and 1 * 10^3 parasites) with a Multidrop Combi dispenser. […] In all wells, the percentage of DMSO never exceeded 0.5%. Plates incubated for four days at 37C, 5% CO2. The substrate used for the assay fluorescence intensity (FLINT) readout was resorufin-beta-D-galactopiranoside (Sigma-Aldrich) at 5uM per well. It was diluted in PBS supplemented with the soft detergent Igepal (Fluka).; assay type: functional, organism-based, Mus musculus; details: Tulahuen, NIH3T3
Leishmania donovani [2] = assay: GSK_TCAKS: pIC50 Leishmania donovani Imaging: THP-1 Host Macrophages. Assay plates (384-well) were prepared by adding 250nL of compound to each well. For single shot assay, the final compound concentration was 5 uM. […] Automated image analysis was performed with a script developed on Acapella High Content Imaging and Analysis Software (PerkinElmer). Output: THP-1 cell count were reported for each well.; assay type: functional, organism-based, Homo sapiens
Trypanosoma cruzi [3] = assay: (§1) GSK_TCAKS: pIC50 Trypanosoma cruzi Imaging: Amastigotes/Cell. […] Cells were then washed once with PBS before infection. T. cruzi trypomastigotes, collected at days 5 to 8 after infection from LLC-MK2 parasite infected cultures, were allowed to swim out for 4h at 37C from a centrifuged pellet (2,500 rpm/10 min/room temperature). Trypomastigotes were then collected and counted in a CASY Cell Counter. Trypomastigotes, in supplemented DMEM, were added to H9c2 cultures in a multiplicity of infection of 1 and incubated for 18 h. Cells were washed once with PBS before incubation of the infected H9c2 monolayer with trypsin (Life-Technologies) to detach cells from the flask. Cells were counted in a CASY Cell Counter using a 150 um capillary and their density set at 5 * 10^4 cells per mL in supplemented assay DMEM. Infected H9c2 were dispensed into 384-well poly-lysine coated assay plates at 50uL per well using a Multidrop Combi dispenser. After seeding them, the plates were incubated at 37C, 5% CO2 for 72h. Cultures were then fixed and stained by addition of 50 uL of a solution containing 8% formaldehyde and 4 uM DRAQ5 DNA dye (BioStatus, UK) per well. […] Five images were collected per well for reliable statistical analysis. Automated image analysis was performed with a script developed on Acapella High Content Imaging and Analysis Software (PerkinElmer). Output: number of amastigotes per cell as infection level measurement.; assay type: functional, organism-based, Rattus norvegicus; details: H9c2, 4 h
Leishmania donovani [4] = assay: GSK_TCAKS: pIC50 Leishmania donovani Imaging: Infected Macrophages. Assay plates (384-well) were prepared by adding 250nL of compound to each well. For single shot assay, the final compound concentration was 5 uM. […] Automated image analysis was performed with a script developed on Acapella High Content Imaging and Analysis Software (PerkinElmer). Output: Percent of infected macrophage cells were reported for each well.; assay type: functional, organism-based, Homo sapiens; details: THP-1
Leishmania donovani [5] = assay: GSK_TCAKS: pIC50 Leishmania donovani Imaging: Amastigotes/Macrophages. Assay plates (384-well) were prepared by adding 250nL of compound to each well. For single shot assay, the final compound concentration was 5 uM. […] Automated image analysis was performed with a script developed on Acapella High Content Imaging and Analysis Software (PerkinElmer). Output: Average number of amastigotes per macrophage cell were reported for each well.; assay type: functional, organism-based, Homo sapiens; details: THP-1
Trypanosoma cruzi [6] = assay: as §1, with “H2C9” for “Trypanosoma cruzi”, “H9c2 Host Cardiomyocytes.” for “Amastigotes/Cell.”, “Number” for “number”, “H9c2 Host Cardiomyocytes nuclei to determine drug-related cytotoxicity.” for “amastigotes per cell as infection level measurement.”; assay type: functional, organism-based, Rattus norvegicus; details: H9c2, 4 h
[7] = target: Sterol 14-alpha demethylase (Trypanosoma cruzi (strain CL Brener), UniProt Q7Z1V1); assay: GSK_TCAKS: pIC50 CYP51 from Trypanosoma cruzi.; assay type: functional
Sequence of Sterol 14-alpha demethylase (Q7Z1V1 whole entry): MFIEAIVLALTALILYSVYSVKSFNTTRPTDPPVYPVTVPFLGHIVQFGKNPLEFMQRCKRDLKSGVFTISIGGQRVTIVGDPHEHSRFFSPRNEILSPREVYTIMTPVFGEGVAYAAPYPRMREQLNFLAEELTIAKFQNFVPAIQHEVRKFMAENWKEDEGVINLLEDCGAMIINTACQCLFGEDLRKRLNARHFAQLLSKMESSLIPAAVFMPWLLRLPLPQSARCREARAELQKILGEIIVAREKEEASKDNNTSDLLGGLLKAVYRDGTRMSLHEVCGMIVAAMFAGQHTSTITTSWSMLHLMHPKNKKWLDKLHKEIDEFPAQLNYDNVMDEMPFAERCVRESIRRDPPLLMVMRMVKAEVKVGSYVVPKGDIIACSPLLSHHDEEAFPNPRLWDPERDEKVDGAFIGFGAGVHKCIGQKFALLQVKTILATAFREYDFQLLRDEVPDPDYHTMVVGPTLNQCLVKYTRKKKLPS

Trypanosoma cruzi [8] = assay: GSK_TCAKS: pIC50 Trypanosoma cruzi Imaging: Infected Cells. […] Cells were then washed once with PBS before infection. T. cruzi trypomastigotes, collected at days 5 to 8 after infection from LLC-MK2 parasite infected cultures, were allowed to swim out for 4h at 37C from a centrifuged pellet (2,500 rpm/10 min/room temperature). Trypomastigotes were then collected and counted in a CASY Cell Counter. Trypomastigotes, in supplemented DMEM, were added to H9c2 cultures in a multiplicity of infection of 1 and incubated for 18 h. Cells were washed once with PBS before incubation of the infected H9c2 monolayer with trypsin (Life-Technologies) to detach cells from the flask. Cells were counted in a CASY Cell Counter using a 150 um capillary and their density set at 5 * 10^4 cells per mL in supplemented assay DMEM. Infected H9c2 were dispensed into 384-well poly-lysine coated assay plates at 50uL per well using a Multidrop Combi dispenser. After seeding them, the plates were incubated at 37C, 5% CO2 for 72h. Cultures were then fixed and stained by addition of 50 uL of a solution containing 8% formaldehyde and 4 uM DRAQ5 DNA dye (BioStatus, UK) per well. […] Five images were collected per well for reliable statistical analysis. Automated image analysis was performed with a script developed on Acapella High Content Imaging and Analysis Software (PerkinElmer). Output: percentage of infected cells per well as a second infection marker.; assay type: functional, organism-based, Rattus norvegicus; details: H9c2, 4 h
Leishmania donovani [9] = assay: GSK_TCAKS: pIC50 Leishmania donovani viability assay using fluorescence intensity. Assay plates (1536-well) were prepared by adding 30nL per well of compound. For single shot assay, the final compound concentration was 5uM. […] Briefly, eGFP LdBOB axenic amastigotes were harvested, fixed and counted in a CASY cell counter (Roche-Applied Science). A final concentration of 1.5 * 10^5 cells per well were prepared in amastigote media containing 500 U/mL penicillin/streptomycin (Invitrogen) and 6uL was dispensed to each experimental well using a Multidrop Combi dispenser (Thermo Scientific). 6uL of assay media was dispensed to control columns used as reference for 100% compound response. Following incubation for 72 h at 37C, 5% CO2, 2 uL of resazurin was added to each well at a final concentration of 0.5 mM in phosphate buffered saline (PBS) with IGEPAL (Sigma-Aldrich), 0.05% (v/v).; assay type: functional, organism-based
[10] = system: Trypanosoma brucei brucei; assay: GSK_TCAKS: pIC50 Trypanosoma brucei viability assay using fluorescence intensity. Assay plates (1536-well) were prepared by dispensing 25nL of compound solution per well using an Echo acoustic dispenser (Labcyte).; assay type: functional, organism-based; details: Lister 427, 2 h
[11] = GSK_TCAKS: pIC50 HepG2 human cell line viability assay using luminiscence. […] Seeding density was checked to ensure that new mono-layers were not more than 50% confluent at the time of harvesting. Cell suspension was added to 500 mL of the same medium at a final density of 1.2 * 10^5 cells/mL. This cell suspension was dispensed (25 uL, 3000 cells per well) into 384-well clear-bottom plates using a Multidrop Combi dispenser. Prior to addition of the cell suspension, the screening compounds (250 nL) were pre-dispensed into the plates with an Echo liquid handler. Plates were incubated for 48 h at 37C, 5% CO2. After incubation, plates equilibrated at room temperature for 30 min before proceeding to develop the luminescent signal. The signal developer, CellTiter-Glo Reagent, was allowed to equilibrate at room temperature for 30 min and added to the plates (25uL per well) using a Multidrop Combi dispenser. Plates were left for 10 min at room temperature for stabilization and then read using a ViewLux.; assay type: toxicity, cell-based
[12] = system: Trypanosoma brucei brucei; assay: GSK_TCAKS: pIC50 Trypanosoma brucei viability assay using luminiscence. Assay plates (1536-well) were prepared. T. brucei cultures were harvested and counted in a CASY cell counter. A parasite suspension was prepared at a final concentration of 5 * 10^4 cells/mL in complete HMI9 medium and 6uL was dispensed to all wells containing compounds using a Multidrop Combi dispenser. 6uL of HMI9 media with 0.4% DMSO were dispensed to control columns. Plates were incubated for 24 h at 37C, 5% CO2 then tempered for 10 min at room temperature. ATP content was quantified by adding 4 uL of CellTiter-Glo Reagent (Promega) according to the manufacturer's instructions. Luminescence was measured using a ViewLux.; assay type: functional, organism-based; details: Lister 427, CASY

| SMILES | IC50 (Trypanosoma cruzi [1]) | IC50 (Leishmania donovani [2]) | IC50 (Trypanosoma cruzi [3]) | IC50 (Leishmania donovani [4]) | IC50 (Leishmania donovani [5]) | IC50 (Trypanosoma cruzi [6]) | IC50 [7] | IC50 (Trypanosoma cruzi [8]) | IC50 (Leishmania donovani [9]) | IC50 [10] | IC50 at 48 h [11] | IC50 [12] |
| --- | --- | --- | --- | --- | --- | --- | --- | --- | --- | --- | --- | --- |
| O=C1NCCn2ccc(Nc3nc(N[C@H]4CC[C@H](O)CC4)ncc3Cl)c21 | 6.31 µM | 0.398 µM | 3.16 µM | 1 µM | 0.631 µM | 0.398 µM | > 100 µM | 20 µM | 2.51 µM | 0.501 µM | > 100 µM | 0.631 µM |
| N#Cc1cccc(CNc2ccc(-c3cnn(CC4CC4)c(=O)c3C#N)cc2)c1 | 5.01 µM | 6.31 µM | 5.01 µM | 1.26 µM | 0.251 µM | > 50.1 µM | 6.31 µM | 7.94 µM | 25.1 µM | 10 µM | > 100 µM | 12.6 µM |
| COc1cc(OC)cc(C(=O)N[C@@H](CC(C)C)C(=O)NC2(C#N)CC2)c1 | > 50.1 µM | > 50.1 µM | > 50.1 µM | > 50.1 µM | > 50.1 µM | > 50.1 µM | > 100 µM | > 50.1 µM | > 50.1 µM | 0.501 µM | > 100 µM | 0.0631 µM |
| Cc1ccc(S(C)(=O)=O)cc1Nc1nccc(-c2sc(N)nc2-c2ccccc2)n1 | 0.126 µM | 20 µM | 0.0794 µM | 5.01 µM | 2.51 µM | 5.01 µM | > 100 µM | 0.126 µM | 3.16 µM | 0.794 µM | 31.6 µM | 1.58 µM |
| CC(C)C[C@H](NC(=O)c1ccc(-c2ccccc2)o1)C(=O)NC1(C#N)CC1 | 31.6 µM | > 50.1 µM | 25.1 µM | > 50.1 µM | 15.8 µM | > 50.1 µM | > 100 µM | > 50.1 µM | > 50.1 µM | 0.1 µM | > 100 µM | 0.0501 µM |
| CCOC(=O)c1noc(N)c1-c1ccccc1 | > 50.1 µM | > 50.1 µM | > 50.1 µM | > 50.1 µM | > 50.1 µM | > 50.1 µM | > 100 µM | > 50.1 µM | > 50.1 µM | 0.631 µM | > 100 µM | 0.631 µM |
| CC(C)C[C@H](NC(=O)c1csc(-c2cccs2)n1)C(=O)NC1(C#N)CC1 | 25.1 µM | > 50.1 µM | 20 µM | > 50.1 µM | > 50.1 µM | > 50.1 µM | > 100 µM | > 50.1 µM | 5.01 µM | 0.158 µM | > 100 µM | 0.1 µM |
| CN(C)S(=O)(=O)c1ccc(-c2cnc(N)c(-c3nc4ccc(F)cc4[nH]3)c2)cc1 | 1.26 µM | 3.98 µM | > 50.1 µM | 1.58 µM | 0.631 µM | 1.26 µM | 39.8 µM | > 50.1 µM | 2.51 µM | 0.398 µM | > 100 µM | 1 µM |
| Nc1cc(-c2ccc3ncnc(N4CCOCC4)c3c2)cnc1N | 1.58 µM | > 50.1 µM | 1.58 µM | 10 µM | 1.26 µM | 3.16 µM | 79.4 µM | 5.01 µM | 3.98 µM | 0.0501 µM | > 100 µM | 0.158 µM |
| NC(=O)c1cc(NC(=O)c2ccccc2COc2ccccc2)ccc1Cl | 39.8 µM | 15.8 µM | 25.1 µM | 3.16 µM | 1.58 µM | > 50.1 µM | 79.4 µM | 31.6 µM | 7.94 µM | 15.8 µM | > 100 µM | > 39.8 µM |
| CC(=O)Nc1cccc(Nc2ncnc3[nH]cnc23)c1 | > 50.1 µM | 10 µM | 25.1 µM | > 50.1 µM | 39.8 µM | > 50.1 µM | > 100 µM | 39.8 µM | > 50.1 µM | 0.126 µM | > 100 µM | 0.398 µM |
